≈ marks a conversion by molar mass, not a printed value.
Tests used:
[1] = Cytotoxicity against human U87MG cells after 72 hrs by MTT assay; assay type: functional, cell-based, U-87MG ATCC; conditions: U-87 MG
[2] = Cytotoxicity against human A549 cells after 72 hrs by MTT assay; assay type: functional, cell-based; conditions: A549, 72 h
cells = conditions: Homo sapiens, HCT-116, 72 h
[3] = Cytotoxicity against human MDA-MB-231 cells after 72 hrs by MTT assay; assay type: functional, cell-based; conditions: MDA-MB-231, 72 h
[4] = Cytotoxicity against human HepG2 cells after 72 hrs by MTT assay; assay type: functional, cell-based; conditions: HepG2, 72 h
HCT-116 = test: Potency index, ratio of GSK2126458 IC50 to compound IC50 for human HCT116 cells; assay type: functional
[5] = target: Phosphatidylinositol 4,5-bisphosphate 3-kinase catalytic subunit alpha isoform (Homo sapiens, UniProt P42336); test: Inhibition of PI3Kalpha (unknown origin) using PIP2 as substrate after 1 hr in presence of ATP by kinase-glo luminescence assay
Chain of Phosphatidylinositol 4,5-bisphosphate 3-kinase catalytic subunit alpha isoform (P42336 whole entry, canonical isoform): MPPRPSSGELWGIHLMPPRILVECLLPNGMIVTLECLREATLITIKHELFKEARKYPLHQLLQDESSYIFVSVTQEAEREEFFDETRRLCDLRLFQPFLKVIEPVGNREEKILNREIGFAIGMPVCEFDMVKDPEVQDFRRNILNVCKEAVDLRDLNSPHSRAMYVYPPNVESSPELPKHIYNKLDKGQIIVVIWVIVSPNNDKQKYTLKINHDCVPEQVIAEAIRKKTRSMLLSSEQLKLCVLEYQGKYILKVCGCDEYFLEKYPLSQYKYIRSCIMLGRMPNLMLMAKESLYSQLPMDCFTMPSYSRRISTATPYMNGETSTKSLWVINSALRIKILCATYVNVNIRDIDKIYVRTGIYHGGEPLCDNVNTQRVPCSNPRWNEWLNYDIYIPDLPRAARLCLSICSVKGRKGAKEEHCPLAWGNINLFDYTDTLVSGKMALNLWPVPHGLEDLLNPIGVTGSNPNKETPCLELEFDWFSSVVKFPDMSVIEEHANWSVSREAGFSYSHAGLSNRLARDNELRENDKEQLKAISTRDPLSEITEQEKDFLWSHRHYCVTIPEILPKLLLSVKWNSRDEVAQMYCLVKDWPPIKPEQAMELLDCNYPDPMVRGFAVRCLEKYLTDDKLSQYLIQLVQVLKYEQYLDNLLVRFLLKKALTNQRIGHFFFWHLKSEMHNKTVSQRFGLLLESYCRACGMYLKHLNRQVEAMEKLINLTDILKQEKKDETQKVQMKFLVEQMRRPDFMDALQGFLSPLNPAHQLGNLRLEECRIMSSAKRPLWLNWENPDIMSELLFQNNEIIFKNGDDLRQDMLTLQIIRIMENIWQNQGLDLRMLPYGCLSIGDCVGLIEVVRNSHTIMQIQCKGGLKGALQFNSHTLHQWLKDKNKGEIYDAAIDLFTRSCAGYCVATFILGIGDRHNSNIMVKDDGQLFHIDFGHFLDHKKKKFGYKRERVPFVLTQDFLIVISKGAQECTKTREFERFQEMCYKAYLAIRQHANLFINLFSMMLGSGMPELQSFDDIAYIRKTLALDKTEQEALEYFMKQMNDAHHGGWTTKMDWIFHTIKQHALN

[6] = Antitumor activity against human A549 cells xenografted in BALB/c nude mouse assessed as tumor volume at 3 mg/kg, ig administered via oral gavage once daily for 9 consecutive days followed by subsequent dosing on day 13 and 14 measured on day 4 (reference value: 419.55 +/- 104.72 mm3); assay type: functional
[7] = Antitumor activity against human A549 cells xenografted in BALB/c nude mouse assessed as tumor volume at 3 mg/kg, ig administered via oral gavage once daily for 9 consecutive days followed by subsequent dosing on day 13 and 14 measured on day 1 (reference value: 156.87 +/- 22.32 mm3); assay type: functional
Mus musculus [8] = test: Toxicity in nude BALB/c mouse xenografted with human A549 cells assessed as body weight at 3 mg/kg, ig administered via oral gavage once daily for 9 consecutive days followed by subsequent dosing on day 13 and 14 measured on day 15 (reference value: 27.12 +/- 1.43 g); assay type: organism-based; conditions: in vivo
Mus musculus [9] = test: Toxicity in nude BALB/c mouse xenografted with human A549 cells assessed as body weight at 3 mg/kg, ig administered via oral gavage once daily for 9 consecutive days followed by subsequent dosing on day 13 and 14 measured on day 1 (reference value: 24.38 +/- 0.76 g); assay type: organism-based; conditions: in vivo
Mus musculus [10] = test: Toxicity in nude BALB/c mouse xenografted with human A549 cells assessed as body weight at 3 mg/kg, ig administered via oral gavage once daily for 9 consecutive days followed by subsequent dosing on day 13 and 14 measured on day 11 (reference value: 26.11 +/- 1.06 g); assay type: organism-based; conditions: in vivo
[11] = Antitumor activity against human A549 cells xenografted in BALB/c nude mouse assessed as tumor volume at 3 mg/kg, ig administered via oral gavage once daily for 9 consecutive days followed by subsequent dosing on day 13 and 14 measured on day 18 (reference value: 3045.91 +/- 854.27 mm3); assay type: functional
[12] = Antitumor activity against human A549 cells xenografted in BALB/c nude mouse assessed as tumor volume at 3 mg/kg, ig administered via oral gavage once daily for 9 consecutive days followed by subsequent dosing on day 13 and 14 measured on day 8 (reference value: 840.07 +/- 205.19 mm3); assay type: functional
[13] = Antitumor activity against human A549 cells xenografted in BALB/c nude mouse assessed as tumor volume at 3 mg/kg, ig administered via oral gavage once daily for 9 consecutive days followed by subsequent dosing on day 13 and 14 measured on day 15 (reference value: 2071.51 +/- 682.84 mm3); assay type: functional
Mus musculus [14] = test: Toxicity in nude BALB/c mouse xenografted with human A549 cells assessed as body weight at 3 mg/kg, ig administered via oral gavage once daily for 9 consecutive days followed by subsequent dosing on day 13 and 14 measured on day 4 (reference value: 24.77 +/- 0.93 g); assay type: organism-based; conditions: in vivo
[15] = Aqueous solubility of the compound in pH 1 simulated gastric fluid; assay type: ADME
[16] = Antitumor activity against human A549 cells xenografted in BALB/c nude mouse assessed as tumor volume at 3 mg/kg, ig administered via oral gavage once daily for 9 consecutive days followed by subsequent dosing on day 13 and 14 measured on day 11 (reference value: 1327.66 +/- 404.92 mm3); assay type: functional
Mus musculus [17] = test: Toxicity in nude BALB/c mouse xenografted with human A549 cells assessed as body weight at 3 mg/kg, ig administered via oral gavage once daily for 9 consecutive days followed by subsequent dosing on day 13 and 14 measured on day 8 (reference value: 25.66 +/- 1.04 g); assay type: organism-based; conditions: in vivo
Mus musculus [18] = test: Toxicity in nude BALB/c mouse xenografted with human A549 cells assessed as body weight at 3 mg/kg, ig administered via oral gavage once daily for 9 consecutive days followed by subsequent dosing on day 13 and 14 measured on day 18 (reference value: 27.75 +/- 1.41 g); assay type: organism-based; conditions: in vivo
[19] = Antitumor activity against human A549 cells xenografted in BALB/c nude mouse assessed as tumor growth inhibition at 3 mg/kg, ig administered via oral gavage once daily for 9 consecutive days followed by subsequent dosing on days 13 and 14 measured on day 30 relative to control; assay type: functional; conditions: 720 h, read-out: TGI
[20] = Cytotoxicity against human NCI60 cells after 48 hrs by SRB assay; assay type: functional; conditions: NCI60, 48 h

Compound | IC50 [1] [µM] | IC50 [2] [µM] | IC50 (cells) [µM] | IC50 [3] [µM] | IC50 [4] [µM] | other results
COc1ncc(-c2ccc3nccc(Cl)c3c2)cc1NS(=O)(=O)c1ccc(F)cc1F | > 100 | 2.94 | 6.59 |  |  | 
CN(CCO)Cc1ccc(-c2ccnc3ccc(-c4cnc(Cl)c(NS(=O)(=O)c5ccc(F)cc5)c4)cc23)cc1 |  | 0.015 | 0.024 | 0.26 | 1.91 | 
COc1ncc(-c2ccc3nccc(-c4ccc(CN5CCCC5)cc4)c3c2)cc1NS(=O)(=O)c1ccc(F)cc1F | 0.159 | 0.0375 | 0.0188 |  |  | 
COc1ncc(-c2ccc3nccc(-c4ccc(Cn5cccn5)cc4)c3c2)cc1NS(=O)(=O)c1ccc(F)cc1F | 1.6 | 0.0308 | 0.0531 |  |  | 
COc1ncc(-c2ccc3nccc(-c4ccc(CN(C)CCO)cc4)c3c2)cc1NS(=O)(=O)c1ccc(F)cc1F |  | 0.02 | 0.0047 |  |  | Ratio IC50 (HCT-116): >30
COc1ncc(-c2ccc3nccc(-c4ccc(CN5CCN(CCO)CC5)cc4)c3c2)cc1NS(=O)(=O)c1ccc(F)cc1F | 0.0212 | 0.0248 | 0.0217 |  |  | 
COc1ncc(-c2ccc3nccc(N4CCCC4)c3c2)cc1NS(=O)(=O)c1ccc(F)cc1F | 6.69 | 3.41 | 3.32 |  |  | 
COc1ncc(-c2ccc3nccc(-c4ccc(CN5CCCCC5)cc4)c3c2)cc1NS(=O)(=O)c1ccc(F)cc1F | 0.032 | 0.0155 | 0.0341 |  |  | 
COc1ncc(-c2ccc3nccc(-c4ccc(CN5CCOCC5)cc4)c3c2)cc1NS(=O)(=O)c1ccc(F)cc1F |  | 0.07 |  |  |  | IC50 [5]: 0.0011 µM
COc1ncc(-c2ccc3nccc(-c4ccc(Cn5cncn5)cc4)c3c2)cc1NS(=O)(=O)c1ccc(F)cc1 |  | 0.033 | 0.026 | 0.283 | 12.7 | 
COc1ncc(-c2ccc3nccc(-c4ccnnc4)c3c2)cc1NS(=O)(=O)c1ccc(F)cc1F [OMIPALISIB] | 0.537 | 0.14 | 0.154 |  |  | Activity [6]: 261.5 mm3; Activity [7]: 146.36 mm3; Activity (Mus musculus [8]): 20.92 g; Activity (Mus musculus [9]): 24.7 g; Activity (Mus musculus [10]): 21.63 g; Activity [11]: 968.24 mm3; Activity [12]: 396.45 mm3; Activity [13]: 669.43 mm3; Activity (Mus musculus [14]): 24.55 g; solubility [15]: 200 µg/mL (≈ 396 µM); Activity [16]: 520.69 mm3; Activity (Mus musculus [17]): 22.98 g; Activity (Mus musculus [18]): 22.22 g; inhibition in vivo at 3 mg/kg [19]: 65.9%
COc1ncc(-c2ccc3nccc(-c4ccc(Cn5ccnc5C)cc4)c3c2)cc1NS(=O)(=O)c1ccc(F)cc1F | 0.04 | 0.0102 | 0.0142 |  |  | 
COc1ncc(-c2ccc3nccc(-c4ccc(Cn5ccnc5)cc4)c3c2)cc1NS(=O)(=O)c1ccc(F)cc1F | 0.6 | 0.0308 | 0.0326 |  |  | 
O=S(=O)(Nc1cc(-c2ccc3nccc(-c4ccc(Cn5cncn5)cc4)c3c2)cnc1Cl)c1ccc(F)cc1 |  | 0.178 | 0.033 | 0.228 | 9.6 | 
COc1ncc(-c2ccc3nccc(-c4ccc(CN(C)CCO)cc4)c3c2)cc1NS(=O)(=O)c1ccc(F)cc1 |  | 0.022 | 0.025 | 0.21 | 1.85 | 
COc1ncc(-c2ccc3nccc(-c4ccc(Cn5cncn5)cc4)c3c2)cc1NS(=O)(=O)c1ccc(F)cc1F |  | 0.016 | 0.0087 |  |  | Ratio IC50 (HCT-116): 18
COc1ncc(-c2ccc3nccc(N4CCOCC4)c3c2)cc1NS(=O)(=O)c1ccc(F)cc1F | > 100 | 2.4 | 4.43 |  |  | 

Compound | IC50 [1] [µM] | IC50 [2] [µM] | IC50 (cells) [µM] | IC50 [3] [µM] | IC50 [4] [µM] | other results
CCN(CC)Cc1ccc(-c2ccnc3ccc(-c4cnc(OC)c(NS(=O)(=O)c5ccc(F)cc5F)c4)cc23)cc1 | 4.89 | 0.022 to 0.0221 | 0.005 |  |  | 
CC[C@@]1(O)C(=O)OCc2c1cc1n(c2=O)Cc2cc3ccccc3nc2-1 [CAMPTOTHECIN] |  |  |  |  |  | GI50 [20]: 0.0398 µM
COc1ncc(-c2ccc3nccc(-c4ccc(C)cc4)c3c2)cc1NS(=O)(=O)c1ccc(F)cc1F | 67 | 1.24 | 2.54 |  |  | 
COc1ncc(-c2ccc3nccc(-c4ccc(CN5CCN(C)CC5)cc4)c3c2)cc1NS(=O)(=O)c1ccc(F)cc1F | 0.336 | 0.0133 | 0.0439 |  |  | 
COc1ncc(-c2ccc3nccc(-c4ccc(CN5CCN(C(C)C)CC5)cc4)c3c2)cc1NS(=O)(=O)c1ccc(F)cc1F | 0.468 | 0.0019 | 0.0247 |  |  | 
O=S(=O)(Nc1cc(-c2ccc3nccc(-c4ccc(CN5CCOCC5)cc4)c3c2)cnc1Cl)c1ccc(F)cc1F |  | 0.024 | 0.051 | 2.43 | 2.31 | 
CCN(Cc1ccc(-c2ccnc3ccc(-c4cnc(OC)c(NS(=O)(=O)c5ccc(F)cc5F)c4)cc23)cc1)C1CCCCC1 | 1.45 | 0.0202 | 0.223 |  |  | 
COc1ncc(-c2ccc3nccc(-c4ccc(CN(C)C)cc4)c3c2)cc1NS(=O)(=O)c1ccc(F)cc1 |  | 0.025 | 0.024 | 0.35 | 3.02 | 
CN(CCO)Cc1ccc(-c2ccnc3ccc(-c4cnc(Cl)c(NS(=O)(=O)c5ccc(F)cc5F)c4)cc23)cc1 |  | 0.121 | 0.041 | 0.337 | 2.88 | 
O=S(=O)(Nc1cc(-c2ccc3nccc(-c4ccc(CN5CCOCC5)cc4)c3c2)cnc1Cl)c1ccc(F)cc1 |  | 0.053 | 0.041 | 2.58 | 7.74 | 
CC(=O)O[C@H]1C(=O)[C@@]2(C)[C@H]([C@H](OC(=O)c3ccccc3)[C@]3(O)C[C@H](OC(=O)[C@H](O)[C@@H](NC(=O)c4ccccc4)c4ccccc4)C(C)=C1C3(C)C)[C@]1(OC(C)=O)CO[C@@H]1C[C@@H]2O [PACLITAXEL] |  |  |  |  |  | GI50 [20]: 0.0315 µM
COc1ncc(-c2ccc3nccc(-c4ccc(CN(CCO)CCO)cc4)c3c2)cc1NS(=O)(=O)c1ccc(F)cc1F | 0.143 | 0.0028 | 0.0038 |  |  | 
COc1ncc(-c2ccc3nccc(-c4ccc(CN(C)CCN(C)C)cc4)c3c2)cc1NS(=O)(=O)c1ccc(F)cc1F | 0.254 | 0.013 |  |  |  | IC50 [5]: 0.0025 µM
CN(C)Cc1ccc(-c2ccnc3ccc(-c4cnc(Cl)c(NS(=O)(=O)c5ccc(F)cc5F)c4)cc23)cc1 |  | 0.251 | 0.024 | 0.053 | 3.86 | 
O=S(=O)(Nc1cc(-c2ccc3nccc(-c4ccc(Cn5cncn5)cc4)c3c2)cnc1Cl)c1ccc(F)cc1F |  | 0.642 | 0.036 | 0.34 | 2.04 | 
COc1ncc(-c2ccc3nccc(-c4ccc(CN5CCOCC5)cc4)c3c2)cc1NS(=O)(=O)c1ccc(F)cc1 |  | 0.017 | 0.03 | 1.97 | 27.2 | 

— ChEMBL document CHEMBL3865829 (Eur J Med Chem, 2016)
